Read-outs that look alike come from different tables or passages of the source. Ends that are not written are not given here.
Experiments:
E. coli ATCC 25922 = test: microbe, parasite or virus in culture; format: cell-based; conditions: for zone of inhibition at 64 µg/mL: Escherichia coli, 10 μL at 64 μg/mL on disk, read-out: Inhibition zone diameter (mm)
Procedure: (§1) Blank disks were placed in the plates and 10 μL of each compound (at 64 μg/mL—maximum concentration tested) added.
(§2) After incubation period results were registered and plates photographed.

A. baumannii ATCC 19606 = test: antibacterial activity testing in solid media (disk, Mueller-Hinton plates); format: cell-based, Acinetobacter baumannii; parameters: key to Inhibition zone diameter (mm): NI—No Inhibition of growth; conditions: for zone of inhibition at 64 µg/mL: Acinetobacter baumannii, read-out: Inhibition zone diameter (mm); for zone of inhibition at 64 µg/mL / Inhibition zone diameter (mm): 10 μL at 64 μg/mL on disk
Procedure: as §1, §2

MRSA ATCC 43300 = test: microbe, parasite or virus in culture; format: cell-based, Methicillin-Resistant Staphylococcus aureus; conditions: for zone of inhibition at 64 µg/mL: Staphylococcus aureus, 10 μL at 64 μg/mL on disk, read-out: Inhibition zone diameter (mm)
Procedure: as §1, §2

[1] = system: elastic fibers of the dermis; test: morphometric quantification of elastic fibers in skin explants; format: cell-based, Human; conditions: for Morphometric quantification of elastic fibers in the middle dermis (%) / Morphometric quantification of elastic fibers in the superficial dermis (%): applied twice per day, 5 μL per explant
Procedure: (§3) Skin explants were prepared from abdominal plastic surgery. Some explants were delipidated with alcohol to obtain a dehydrated skin.
(§4) These explants were maintained in maintenance medium supplied by the provider Biopredic International for 5 days. Test items are applied twice per day with 5 μL per explant.
(§5) For each time of analysis (D1 and D5), histologies on delipidated explants, treated explants with test items, the DMSO 0.3% control and water control, are performed.
(§6) After receipt in the laboratory, each skin explant in the maintenance medium is delipidated with 5 μL alcohol during 3 hours.
(§7) After 3 hours, all skin explants are treated two per day with test items, and they are incubated at 37° C.+/−2° C., 5% CO2 for 1 day or 5 days.
The immunohistochemical staining intensity in the elastic fibers is evaluated using a semi-quantitative histological score.
The percentage area taken up by elastic fibers in the dermis was calculated in the dermis and the average superficial dermis. Results are presents in Table 4, FIG. 2 and FIG. 3.

[2] = system: keratinocytes of the basal layer of the epidermis; test: Ki67 immunohistochemistry (mitotic index) in skin explants; format: cell-based, Human; conditions: for number of mitotic cells compared to EGF: day 1
Procedure: as §3, §4, §5, §6, §7
Epithelial proliferation was analyzed by immunohistochemistry using anti-Ki67 antibody. […] Counting the number of labeled cells (keratinocytes of the basal layer of the epidermis) is performed and provides the total number of basal cells to calculate the % of labeled cells.
The results of the immunohistochemical analysis of Ki67 are reported in Table 5 and expressed as % of labelled at the basal layer of the epidermis. The Error! […] Immunohistochemical analysis of mitotic activity is shown in annex 4 with a reminder of the average for each analysed conditions.

TNF-α = TNF-α secretion by LPS-stimulated THP-1 differentiated macrophages (Biolegend ELISA); format: cell-based, human; conditions: THP-1 differentiated macrophages treated 24 hrs. prior to LPS stimulation
Procedure: TNF-α is secreted by macrophages in response to stimulation by endotoxins such as lipopolysaccharides (LPS). TNF-α is thought to be involved in systemic inflammation and dysregulation of TNF-α production is thought to be involved in many diseases. The Biolegend assay is a sandwich ELISA kit that is designed for the accurate quantitation of human TNF-α from cell culture supernatant, serum or plasma.
THP-1 monocytes were seeded in a 96 well plate at 10,000 cells per well in RPMI containing 10% fetal calf serum (FCS), 1% Pen/strep, 1% L-glutamine, 100 nM PMA and allowed to differentiated for 72 h prior to experimentation.
Following differentiation the cells were incubated with 100 ng/ml, 10 ng/ml or 1 ng/ml synthetic peptide for 24 h respectively.
Following treatment the cells were stimulated with 10 ng/ml LPS for 5 h and the quantity of TNF-α in the supernatant determined using the Biolegend assay ELISA kit.
Results were calculated as a percentage of the untreated control. An increase in optical density reading indicates greater quantity of TNF-α release into cell culture supernatant.
All experiments were prepared in duplicate on three plates (6 wells/conditions). Significance was calculated using Students t-test (*p<0.05 compared to control, **p<0.01 compared to control, *** p<0.001 compared to control).

GLUT4 = test: GLUT4myc translocation in L6 myotubes; format: cell-based
Excerpt: We determined the effect of six synthetic peptides (SP1-6) and four peptide compositions on in vitro GLUT4 translocation using the L6 rat skeletal muscle cell line. A clone of the L6 cell line containing overexpression of GLUT4 tagged with a c-myc epitope (courtesy of Prof. Amira Klip, Hospital for Sick Children, Toronto) was used to investigate the efficacy of each synthetic peptide and peptide composition for effects on GLUT4 translocation in a dose-response design.
L6-GLUT4myc cells were grown in 10% FBS and 2 μg/ml blasticidin. Cells were grown for 48-72 hours before being seeded in 24-well plates at 15,000 cells per well in 2% FBS and allowed to differentiate for 6 to 8 days prior to experimentation.
L6-GLUT4myc cells were serum-starved for three hours prior to incubation with 100 nM of insulin for 30 mins, or 200, 20, 2.0 and 0.2 μM of SP, and 2, 1, 0.5 and 0.25 mg/ml of peptide composition for 3 hours respectively. A 3 hour incubation period was selected based on previous findings identifying that incubation with branch chain amino acid containing di-peptides for 3 hours increases glucose uptake in L6 myotubes 1. Treatments were staggered in order to determine GLUT4myc translocation at the same time point.
The quantity of myc-tagged GLUT4 at the cell surface was measured by antibody-coupled colorimetric assay. Briefly, after incubation with either insulin for 30 mins or synthetic peptide or peptide composition for 3 hours respectively, L6-GLUT4myc cells were fixed via incubation with 3% paraformaldehyde (PFA). A 0.1 M glycine solution was then added to quench PFA and cells were blocked with 5% goat serum. The myotube monolayer was exposed to anti-myc antibody and then incubated with peroxidase conjugated donkey anti-mouse IgG. 1 mL of o-phenylenediamine dihydrochloride (OPD) reagent was added to each well and this reaction was stopped by adding […] of 3 M HCL. To determine GLUT4 translocation to cell surface, a measured aliquot of each condition was determined spectrophotometrically on a plate reader using absorbance at 492 nm.
In addition to an untreated control, 100 nM insulin was utilised to stimulate a maximal GLUT4 translocation response i.e. a positive control in each experiment. […] Treatments were staggered so that all conditions (untreated, insulin and sample) were processed at the same time-point.

[3] = final result, not at the levels of susceptibility

Compound	Morphometric quantification of elastic fibers in the middle dermis (%) ([1]; D1)	Morphometric quantification of elastic fibers in the superficial dermis (%) ([1]; D1)	Morphometric quantification of elastic fibers in the middle dermis (%) ([1]; D5)	Morphometric quantification of elastic fibers in the superficial dermis (%) ([1]; D5)	% of Ki67 positive cells in the basal layer of the epidermis ([2]; D1)	% of Ki67 positive cells in the basal layer of the epidermis ([2]; D5)	also measured
O=C(O)c1cn(C2CC2)c2cc(N3CCNCC3)c(F)cc2c1=O [CIP, Ciprofloxacin]	–	–	–	–	–	–	zone of inhibition at 64 µg/mL (E. coli ATCC 25922; ATCC25922, Rep 1): 42 mm; zone of inhibition at 64 µg/mL (E. coli ATCC 25922; ATCC25922, Rep 2): 40 mm; zone of inhibition at 64 µg/mL (E. coli ATCC 25922; ATCC25922, Rep 3): 42 mm; zone of inhibition at 64 µg/mL (A. baumannii ATCC 19606; ATCC19606, Rep 1): 27 mm; zone of inhibition at 64 µg/mL (A. baumannii ATCC 19606; ATCC19606, Rep 2): 28 mm; zone of inhibition at 64 µg/mL (A. baumannii ATCC 19606; ATCC19606, Rep 3): 27 mm; zone of inhibition at 64 µg/mL (MRSA ATCC 43300; Rep 1): 27 mm; zone of inhibition at 64 µg/mL (MRSA ATCC 43300; Rep 2): 28 mm; zone of inhibition at 64 µg/mL (MRSA ATCC 43300; Rep 3): 29 mm
DEHQKIHQFR [0723.08]	3.52%	2.7%	7.27%	5.32%	27.83%	5.72%	number of mitotic cells compared to EGF [2]: increase; TNF-α secretion reduced vs. untreated cells (TNF-α): 80%
DTFYNAAWDPSNR [SP1, reference compound]	–	–	–	–	–	–	cell viability (GLUT4; 200 μM, L6-GLUT4myc cells): poor cell viability
EDLRLVDLVIPVNGPGKFE [0723.06]	4.54%	3.8%	8.67%	4.03%	31.97%	5.04%	number of mitotic cells compared to EGF [2]: increase
EGF (Epidermal Growth Factor): Epidermal Growth Factor, 10 ng/mL, comparison condition in the skin explant tests [reference compound]	5.68%	3.64%	6.61%	5.61%	25.11%	4.2%	–
HGEWRPSYEKQEDEE [0723.03]	4.9%	3%	9%	11.68%	22.01%	10.04%	elastic fibers in the middle dermis compared to the water control ([1]; D5): increase; elastic fibers in the superficial dermis compared to control water ([1]; D5): increase by twice
HPVAITASSNLNLLGFG [0723.02]	11.75%	6.09%	9.08%	7.59%	19.61%	6.73%	elastic fibers in the middle dermis compared to the water control ([1]; D5): increase; elastic fibers in the middle dermis compared to control water ([1]; day 1): increase doubled; TNF-α secretion reduced vs. untreated cells (TNF-α): 80%
LNSQKFPILNLVQLSATR [I_87_SF]	–	–	–	–	–	–	inhibition zone (E. coli ATCC 25922; ATCC 25922): 9-10 mm; inhibitory activity (E. coli ATCC 25922; [3]): some inhibitory activity; Inhibition zone diameter (mm) (A. baumannii ATCC 19606; Rep 1): NI; Inhibition zone diameter (mm) (A. baumannii ATCC 19606; Rep 2): NI; Inhibition zone diameter (mm) (A. baumannii ATCC 19606; Rep 3): NI; inhibitory activity (A. baumannii ATCC 19606; final result): No activity; inhibition zone (MRSA ATCC 43300; agar plates): 18 mm; inhibitory activity (MRSA ATCC 43300; [3]): some inhibitory activity
QQYGIAASPFLQSAA [0723.07]	6.46%	4%	5.33%	5.15%	22.22%	5.26%	–
RHGEWRPSY [0723.01]	7.59%	4.45%	10.17%	10.21%	18.57%	3.92%	elastic fibers in the middle dermis compared to the water control ([1]; D5): increase; elastic fibers in the superficial dermis compared to control water ([1]; D5): increase by twice
RPYYSNAPQEIF [0723.04]	5.22%	3.28%	9%	8.94%	14.97%	11.36%	–
VLDLAIPVNRPGQL [SP2, glucose transport promoting fragment of Pea Protein P13918, Section C]	–	–	–	–	–	–	GLUT4 translocation (GLUT4; 0.2-2 μM, 3 hours): trend for SP2 to increase GLUT4 translocation; stimulatory effect on skeletal muscle GLUT4 translocation (GLUT4; conclusion of the experiment): trend for stimulatory effect
VLLEQQEQEPQH [0723.05]	8.8%	6.34%	6.61%	6.26%	9.48%	3.08%	–
